These results are taken from US8956868B2, “Induced pluripotent stem cells produced with a connexin inhibitor and a TGF-β signaling inhibitor” (LSIP, LLC, priority 2010, dated 2015).

The series concerns cardiomyocytes derived from neonatal mouse ventricles. Nature of the series: Reprogramming of cardiomyocytes into iPS cells (selective culture in mouse ES medium). The format is cell-based. Particulars: ES medium containing both 10 μM SB-431542 and 100 nM siRNA Cx43 (combination); after about two weeks; cardiomyocytes seeded at 2×10^5 cells. As for the experimental part: Two-day-old neonatal C57BL/6 or C57BL/6-Tg (CAG-EGFP) mouse hearts including ventricles were minced into approximately 2-mm cubes with dissecting scissors by a conventional method. They were treated with 0.2% collagenase (type II; Worthington Biochemical Corp. U.S.; dissolved in PBS) to dissociate cardiomyocytes. The dissociated cardiomyocytes were centrifuged, and incubated for 45 minutes in DMEM containing 10% FBS at 37° C. with 5% CO2. After the incubation, the supernatant was further incubated under the same conditions. This process was repeated four times. Thus, fibroblasts were removed, and the cardiomyocytes were isolated,
The cardiomyocytes were seeded at 2×10^5 cells in a 6-cm dish, and cultured in the above DMEM medium. After culturing for 1 week, the medium used for culturing the cardiomyocytes was switched from the above DMEM medium to mouse ES media containing 15% FBS and also containing either a TGF-β receptor inhibitor SB-431542 (10 μM; Tocris, USA), siRNA Cx43 (100 nM), or both compounds, to select the reprogrammed cells. […]

Regarding `NC(=O)c1ccc(-c2nc(-c3ccc4c(c3)OCO4)c(-c3ccccn3)[nH]2)cc1` [SB-431542], the “iPS cell colonies obtained” value was “Two”.
As to “siRNA Cx43: mouse Cx43 siRNA; sense 5′-CAAUUCCUCCUGCCGCAATT-3′, antisense 5′-UUGCGGCAGGAGGAAUUGTT-3′ (sense CAAUUCCUCCUGCCGCAATT; antisense UUGCGGCAGGAGGAAUUGTT; chemistry not given here)”, the “iPS cell colonies obtained” value was “Two”.
